In brackets after ≈: the same amount, converted by molar mass.
Legend:
[1] = system: L1210 cancer cells; experiment: Evaluation of antitumor activity (L1210 growth, 4 days, trypan blue); assay type: cell-based; details: Mus musculus, 96 h, Table 37, L1210, 1×10^5 cells/ml
Protocol: Cancer cells were grown in an RPMI 1640 culture medium containing 10% of fetal calf serum.
The compound to be tested was dissolved in 99.5% ethanol and was added to the medium so that the final concentration of the ethanol was 0.1% or less. As a control, 0.1% ethanol was used. L1210 cancer cells were inoculated at a concentration of 1×10^5 cells/ml in the medium and were grown for 4 days. The number of live cells was determined by trypan blue staining.

[2] = system: human osteoblast (SAM-1, 12PDL); experiment: Determination (1) of bone formation activity (SAM-1, 25 days); assay type: cell-based; details: Table 38; for Ca per DNA: control 0.386 ± 0.245; for ALP per DNA: control 1.148 ± 0.050; for P per DNA: control 1.528 ± 0.316
Protocol: Human osteoblast (SAM-1, 12PDL) was cultured in α-MEM containing 10% fetal bovine serum, and when a stable growth was attained, a predetermined concentration of the compound was added in the presence of 2 mM α-glycerophosphoric acid salt, followed by treatment for 25 days. The cell layer was washed with Hank's solution and the alkali phosphatase activity then measured by absorption at OD410. Next, calcium and phosphorus were extracted with a 5% perchloric acid solution and quantitated, and DNA was extracted with 5% perchloric acid at 90° C., and the weight thereof quantitated. These evaluations were conducted according to the methods of Koshihara et al (Biochemical and Biophysical Research Communication Vol 145, No. 2, 1987, p. 651).

[3] = system: human osteoblasts; details: Koshihara et al., Biochemical Society of Japan (Preprints, 1988, p.767); cited from earlier work

Structure (SMILES) | IC50 [1] | other results
CCCCCC(O)C=CC1C=C([S+](C)[O-])C(=O)C1=CCCCCCC(=O)OC (stereo not drawn) [2-methylsulfinyl-5-(6-methoxycarbonyl-hexylidene)-4-(3-hydroxy-1-octenyl)-2-cyclopentenone] | 4 µg/mL (≈ 9.74 µM) | 
C[S+]([O-])C1=CC(=CCCCOc2ccccc2)/C(=C/C=C/C(O)CCCO)C1=O (stereo not drawn) [2-methylsulfinyl-5-[( -- Z)-4,7-dihydroxy-2-heptenylidene]-4-(4-phenoxybutylidene)-2-cyclopentenone] | 0.1 µg/mL (≈ 0.24 µM) | 
CSC1=CC(O)(CCCCOc2ccccc2)/C(=C/C=C/C(O)CCCO)C1=O (stereo not drawn) [drawing 1105, 2-methylthio-5-[( -- Z)-4,7-dihydroxy-2-heptenylidene]-4-(4-phenoxybutyl)-4-hydroxy-2-cyclopentenone] |  | Ca per DNA ([2]; 10^-6 M): 29.410 μg/μg DNA; ALP per DNA ([2]; 10^-6 M): 1.447 OD 410 nm/μg DNA; P per DNA ([2]; 10^-6 M): 5.743 ± 0.630 μg/μg DNA; Ca per DNA ([2]; 10^-7 M): 8.847 ± 1.485 μg/μg DNA; ALP per DNA ([2]; 10^-7 M): 0.333 ± 0.039 OD 410 nm/μg DNA; P per DNA ([2]; 10^-7 M): 5.270 ± 0.144 μg/μg DNA
CSC1=CC(=CCCCOc2ccccc2)/C(=C/C=C/C(O)CCCO)C1=O (stereo not drawn) [drawing 1103, 2-methylthio-5-[( -- Z)-4,7-dihydroxy-2-eptenylidene]-4-(4-phenoxybutylidene)-2-cyclopentenone] | 3.5 µg/mL (≈ 8.74 µM) | 
CCCCCC(O)C=CC1C=C(SC)C(=O)C1=CCCCCCC(=O)OC (stereo not drawn) [drawing 1097, 2-methylthio-5-(6-methoxycarbonyl-hexylidene)-4-(3-hydroxy-1-octenyl)-2-cyclopentenone] | 5 µg/mL (≈ 12.7 µM) | 
CS(=O)(=O)C1=CC(O)(CCCCOc2ccccc2)/C(=C\C=C\C(O)CCCO)C1=O (stereo not drawn) [2-methylsulfonyl-5-[( -- E)-4,7-dihydroxy-2-heptenylidene]-4-(4-phenoxybutyl)-4-hydroxy-2-cyclopentenone] | 2 µg/mL (≈ 4.44 µM) | 
C[S+]([O-])C1=CC(O)(CCCCOc2ccccc2)/C(=C/C=C/C(O)CCCO)C1=O (stereo not drawn) [drawing 1102, 2-methylsulfinyl-5-[( -- Z)-4,7-dihydroxy-2-heptenylidene]-4-(4-phenoxybutyl)-4-hydroxy-2-cyclopentenone] | 1 µg/mL (≈ 2.3 µM) | 
CCCCC[C@H](O)/C=C/[C@H]1C(=O)C[C@H](O)[C@@H]1C/C=C\CCCC(=O)O [prostaglandin D2] |  | calcification by human osteoblasts [3]: accelerated
CSC1=CC(O)(CCCCOc2ccccc2)/C(=C/C=C/C(O)CCCO)C1=O (stereo not drawn) [drawing 1101, 2-methylthio-5-[( -- Z)-4,7-dihydroxy-2-eptenylidene]-4-(4-phenoxybutyl)-4-hydroxy-2-cyclopentenone] | 1.2 µg/mL (≈ 2.87 µM) | 
C[S+]([O-])C1=CC(O)(CCCCOc2ccccc2)/C(=C\C=C\C(O)CCCO)C1=O (stereo not drawn) [2-methylsulfinyl-5-[( -- E)-4,7-dihydroxy-2-heptenylidene]-4-(4-phenoxybutyl)-4-hydroxy-2-cyclopentenone] | 1 µg/mL (≈ 2.3 µM) | 

— patent US5216183A, “Cyclopentanone/cyclopentenone derivative” (Teijin Limited, priority 1988, dated 1993)
